# Laboratory results reported in patent US9370189B2, “Controlling Pseudomonas aeruginosa persister cells with GM-CSF” (priority 2012, dated 2016).
# Experiments:
# E. coli K12 biofilm = assay: Effect of GM-CSF on 24-h E. coli K12 biofilm, alone and with antibiotic; format: cell-based, Escherichia coli
# Experimental: This Example describes the treatment of biofilms made from P. aeruginosa PAO1, PDO300 and Escherichia coli K12, with GM-CSF introduced directly or together with an antibiotic to test the synergy.
# In brief, after preparing an overnight culture, it was subcultured to an initial OD600 of 0.01 to a total volume of 20 mL M63 medium (for PAO1 and PDO300) or 20 ml LB medium (for E. coli K12) in a petri dish with 316L stainless steel coupons (1.75 cm×1 cm). The biofilm was grown for 24 h at 37° C. without shaking. After incubation, the coupons were washed by gently dipping in 0.85% NaCl twice using tweezers and were placed in new empty petri dishes.
# To test the synergistic effects between GM-CSF (2.43 pg/mL or 0.17 pM) and antibiotics, a total of 8 coupons were analyzed. These 8 coupons were placed in 4 petri dishes (2 coupons in each dish). The two dishes were labeled as control and the other two as treatment samples. In the treatment samples, GM-CSF was added to 20 mL of 0.85% NaCl to a concentration of 2.43 pg/mL (or 0.17 pM). The control samples were supplemented with the same amount of PBS and BSA as present in the samples with 2.43 pg/ml (or 0.17 pM) GM-CSF. The coupons were incubated at 37° C. for 2 h.
# After incubation, a control dish and a treatment dish was selected for studying the killing effect of 2.43 pg/ml GM-CSF on biofilm cells. Each coupon after gentle washing with 0.85% NaCl buffer, was placed in a test tube with 3 mL 0.85% NaCl buffer in each. They were sonicated (B200, Sinosonic Industrial Co., Ltd., Taiwan) for 4 mins to release the biofilm cells in the buffer. After vortexing for 1 min, they were plated on LB agar plates using drop plate method. The CFU was counted after incubation at 37° C. for 24 h to count the total number of viable cells. Furthermore, the synergistic effect of antibiotics with GM-CSF was evaluated with additional 3.5 h treatment with antibiotic at 37° C. After incubation, drop plate method was performed and the CFU was counted to understand if there is a synergistic effect.
# [1] = test system: whole cells of P. aeruginosa; assay: GM-CSF binding assay to bacterial whole cells (slot blot immunoblotting); parameters: species or system Pseudomonas aeruginosa; details: PBS, room temperature, 2 h, anti-rhGM-CSF immunoblot (FIG. 21)
# Experimental: This Example describes experiments conducted to determine the capability of GM-CSF to bind to whole cells of P. aeruginosa and E. coli. In brief, bacteria harvested at stationary phases of growth were washed with PBS and adjusted to OD600 of 0.4 with PBS to ensure that an equal amount of cells was used for all GF-CSF binding tests. Suspensions of bacteria (10^6 CFU) were then incubated with and without different amount of recombinant human GM-CSF (rhGM-CSF, R&D systems) in a 40 μL volume at room temperature for 2 hours. After incubation, the cell suspension was centrifuged to separate supernatant (comprising buffer and unbound GM-CSF) and pellet (comprising cell and bound GM-CSF, if any), followed by the addition of 10 mM EDTA and boiling for 30 minutes to inactivate bacterial alkaline phosphatase activity. As control, PBS buffer with GM-CSF were processed in the similar manner. All the samples were then applied to Slot Blot (BioRad) for immunoblotting experiments. Anti-rhGMCSF developed in mice (Human GM-CSF MAb, Mouse IgG1, R&D system) was used as first antibody; Alkaline Phosphatase conjugated with Anti-mouse IgG was used to detect the binding of GM-CSF with BCIP/NBT (Promega) as substrates.
substance,measurement,setting,value
"GM-CSF: granulocyte macrophage-colony stimulating factor, a cytokine secreted by macrophages; recombinant human GM-CSF (R&D systems) in binding tests",% change in avg. CFU/ml after adding factor + CIP,"E. coli K12 biofilm; 24-h E. coli K12 biofilm, 2.43 pg/mL GM-CSF with 100 μg/mL ciprofloxacin",+4.8%
same,% change in avg. CFU/ml after adding factor + TET,"E. coli K12 biofilm; 24-h E. coli K12 biofilm, 2.43 pg/mL GM-CSF with 100 μg/mL tetracycline",+3.6%
same,% change in avg. CFU/ml after adding factor + TOB,"E. coli K12 biofilm; 24-h E. coli K12 biofilm, 2.43 pg/mL GM-CSF with 100 μg/mL tobramycin",+4.2%
same,% change in avg. CFU/ml after adding factor + GEN,"E. coli K12 biofilm; 24-h E. coli K12 biofilm, 2.43 pg/mL GM-CSF with 125 μg/mL gentamicin",+8.1%
same,average CFU/mL of biofilm cells changed by,"E. coli K12 biofilm; E. coli K12 biofilm, 2.43 pg/mL GM-CSF alone, average of 2 experiments",+4.83%
same,average CFU/ml of biofilm cells changed by,"E. coli K12 biofilm; E. coli K12 biofilm, 2.43 pg/mL GM-CSF in the presence of 100 μg/mL ciprofloxacin",+1.2%
same,average CFU/ml of biofilm cells changed by,"E. coli K12 biofilm; E. coli K12 biofilm, 2.43 pg/mL GM-CSF in the presence of 100 μg/mL tetracycline",−2.4%
same,average CFU/ml of biofilm cells changed by,"E. coli K12 biofilm; E. coli K12 biofilm, 2.43 pg/mL GM-CSF in the presence of 100 μg/mL tobramycin",+0.6%
same,average CFU/ml of biofilm cells changed by,"E. coli K12 biofilm; E. coli K12 biofilm, 2.43 pg/mL GM-CSF in the presence of 125 μg/mL gentamicin",+1.9%
same,binding to whole cells,[1],does bind
